In US20180193391A1, “INDUCTION OF LAMINA PROPRIA REGULATORY T CELLS” (President and Fellows of Harvard College, priority 2015, published 2018):

B1: IL-33: recombinant mouse IL-33 (BioLegend); alarmin (protein, UniProt Q8BVZ5 1-266, looked up)
Interleukin-33: MRPRMKYSNSKISPAKFSSTAGEALVPPCKIRRSQQKTKEFCHVYCMRLRSGLTIRKETSYFRKEPTKRYSLKSGTKHEENFSAYPRDSRKRSLLGSIQAFAASVDTLSIQGTSLLTQSPASLSTYNDQSVSFVLENGCYVINVDDSGKDQEQDQVLLRYYESPCPASQSGDGVDGKKLMVNMSPIKDTDIWLHANDKDYSVELQRGDVSPPEQAFFVLHKKSSDFVSFECKNLPGTYIGVKDNQLALVEEKDESCNNIMFKLSKI

Assays:
colonic Rorγ^+ Tregs = experiment: Mono-colonization of germ free mice with single bacterial species; colonic Rorγ+ Tregs by flow cytometry; type: in vivo, Germfree C57BL/6J mice
Experimental: A panel of bacterial species selected from the microbiota of the human gastrointestinal tract were tested for their ability to induce the production of Rorγ^+ Tregs. Bacteria were obtained from the ATCC, BEI Resources, or the German Collection of Microorganisms and Cell Cultures (DSMZ), or from the laboratory collections at Harvard Medical School. Anaerobic bacteria were cultured under strictly anaerobic conditions (80% N2, 10% H2, 10% CO2) at 37° C. in an anaerobic chamber.
Germfree C57BL/6J were maintained in sterile isolators, and were inoculated by gavage with single bacterial species at 4 weeks of age, then housed in gnobiotic isolators. After 2 weeks, mice were sacrificed, colon tissue was harvested, cleaned of luminal content and treated with RPMI containing 1 mM DTT, 20 mM EDTA and 2% FBS at 37° C. for 15 min to remove epithelial cells. The colon tissue was then minced and dissociated in collagenase solution (1.5 mg/ml collagenase II (Gibco), 0.5 mg/ml dispase and 1% FBS in RPMI) with constantly stirring at 37° C. for 45 min. […] Cells were analyzed with a BD LSRII flow cytometer, and data analysis was performed with FlowJo (Tree Star) software. The proportion of Rorγ^+ Tregs was determined within the total population of CD4^+FoxP3^+ Treg cells, and the significance of the difference relative to unmanipulated germfree mice determined using a two-tailed Student's T-test. […]

Rorγ^+ Tregs = experiment: IL-33 administration to mice; response of Rorγ+ Tregs; type: in vivo; conditions: recombinant mouse IL-33 i.p.
Experimental: Mice were bred in a pathogen-free facility or in germ-free isolators. For IL-33 administration, recombinant mouse IL-33 (BioLegend) was administered i.p. at 2 μg/injection every other day for 7 days.

Row | Molecule | induction of production of Rorγ^+Helios^− LP Tregs (colonic Rorγ^+ Tregs; germ free mice colonized with single bacterial species for 2 weeks, FIGS. 4D, 4E and 5) | ability to promote colonic Treg production (proportions) (colonic Rorγ^+ Tregs; within the Bacteroides genus, mono-colonized germ free mice) | response of Rorγ^+ Tregs to IL-33 (Rorγ^+ Tregs)
1 | Bacteroides fragilis | capable of inducing production | low | 
2 | B1 |  |  | do not respond
